Measured values taken from US8076487B2, “Pyridone derivative and herbicide” (Kumiai Chemical Industry Co., Ltd., priority 2006, dated 2011).

Experiments:
Assay type in all cases: in vivo
[1] = tested on: slender amaranth (Amaranthus viridis L.); test: Test Example 3: herbicidal effect by application to upland field (foliage treatment); conditions: 14th day after application; for herbicidal effect (index), Slender Amaranth: foliage treatment, plants grown two weeks, 1,000 g active ingredient per hectare; for herbicidal effect, Slender Amaranth: foliage treatment, 1,000 g active ingredient per 1 hectare, greenhouse
Procedure: (§1) [table] Test Example 3 Test on Herbicidal Effect by Application to Upland Field In a 80 cm2 plastic pot, field soil was filled. Seeds of barnyardgrass (Echinochloa crus-galli (L.) P. Beauv. var. crus-galli), green foxtail (Setaria viridis (L.) P. Beauv.), velvetleaf (Abutilon theophrasti medicus), and slender amaranth (Amaranthus viridis L.) were sown and allowed to grow for two weeks in a greenhouse. Thereafter, the wettable powder prepared according to Formulation Example 1 was diluted in water and a 1,000 liter equivalent amount per 1 hectare so that the active ingredient becomes 1,000 g per 1 hectare was sprayed using a small sprayer from a top of the plants through its entire body for foliage treatment. Then, on the 14th day after the application to the plants grew in a greenhouse, the herbicidal effect was examined in accordance with a standard shown in Table 34.

[2] = tested on: velvetleaf (Abutilon theophrasti medicus); test: as above; conditions: 14th day after application; for herbicidal effect (index), Velvetleaf: foliage treatment, plants grown two weeks, 1,000 g active ingredient per hectare; for herbicidal effect, Velvetleaf: foliage treatment, 1,000 g active ingredient per 1 hectare, greenhouse
Procedure: as §1

[3] = tested on: barnyardgrass (Echinochloa crus-galli (L.) P. Beauv. var. crus-galli); test: as above; conditions: 14th day after application; for herbicidal effect (index), Barnyardgrass: foliage treatment, plants grown two weeks, 1,000 g active ingredient per hectare; for herbicidal effect, Barnyardgrass: foliage treatment, 1,000 g active ingredient per 1 hectare, greenhouse
Procedure: as §1

[4] = tested on: green foxtail (Setaria viridis (L.) P. Beauv.); test: as above; conditions: 14th day after application; for herbicidal effect (index), Green Foxtail: foliage treatment, plants grown two weeks, 1,000 g active ingredient per hectare; for herbicidal effect, Green Foxtail: foliage treatment, 1,000 g active ingredient per 1 hectare, greenhouse
Procedure: as §1

[5] = tested on: early watergrass (Echinochloa oryzicola Vasing); test: Test Example 1: herbicidal effect by soil application to paddy field; conditions: paddy field soil application; active ingredient 1,000 g per 1 hectare; wettable powder added dropwise to water surface the day after sowing; examined on the 21st day after application
Procedure, shortened: (§2)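 Plants were sown in flooded (3 cm) paddy soil and evaluated for herbicidal effect 21 days after soil application in a greenhouse.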

[6] = tested on: Japanese bulrush (Scirpus juncoides Roxb.); test: as above; conditions: paddy field soil application; active ingredient 1,000 g per 1 hectare; wettable powder added dropwise to water surface the day after sowing; examined on the 21st day after application
Procedure, shortened: as §2

[7] = tested on: heartshape false pickerelweed (Monochoria vaginalis (Burm.f.) C.Presl); test: as above; conditions: paddy field soil application; active ingredient 1,000 g per 1 hectare; wettable powder added dropwise to water surface the day after sowing; examined on the 21st day after application
Procedure, shortened: as §2

For `C=C(C)Cn1c(C(F)(F)F)ccc(C(=O)C2=C(O)CCCC2=O)c1=O` [I-12], the “herbicidal effect (index), Slender Amaranth” value [1] was 5 (90% or more of herbicidal effect and crop phytotoxicity), the “herbicidal effect (index), Velvetleaf” value [2] was 5 (90% or more of herbicidal effect and crop phytotoxicity) and the “herbicidal effect (index), Barnyardgrass” value [3] was 5 (90% or more of herbicidal effect and crop phytotoxicity). For the same compound, the “herbicidal effect (index), Green Foxtail” value [4] was 5 (90% or more of herbicidal effect and crop phytotoxicity), the “herbicidal effect, Echinochloa oryzicola Vasing” value [5] was 5 (90% or more of herbicidal effect and crop phytotoxicity) and the “herbicidal effect, Scirpus juncoides Roxb.” value [6] was 5 (90% or more of herbicidal effect and crop phytotoxicity). The “herbicidal effect, Monochoria vaginalis (Burm. f.) C. Presl” value (“herbicidal effect, Monochoria vaginalis” for short) [7] was 5 (90% or more of herbicidal effect and crop phytotoxicity).

With `CNn1c(C(F)(F)F)ccc(C(=O)C2=C(O)CCCC2=O)c1=O` [I-157] the “herbicidal effect, Slender Amaranth” value [1] was 5 (90% or more of herbicidal effect and crop phytotoxicity), the “herbicidal effect, Velvetleaf” value [2] was 5 (90% or more of herbicidal effect and crop phytotoxicity) and the “herbicidal effect, Barnyardgrass” value [3] was 5 (90% or more of herbicidal effect and crop phytotoxicity). For the same compound, the “herbicidal effect, Green Foxtail” value [4] was 5 (90% or more of herbicidal effect and crop phytotoxicity), the “herbicidal effect, Echinochloa oryzicola Vasing” value [5] was 5 (90% or more of herbicidal effect and crop phytotoxicity) and the “herbicidal effect, Scirpus juncoides Roxb.” value [6] was 5 (90% or more of herbicidal effect and crop phytotoxicity). For the same compound, the “herbicidal effect, Monochoria vaginalis” value [7] was 5 (90% or more of herbicidal effect and crop phytotoxicity).

For `CC(CCCCn1c(C(F)(F)F)ccc(C(=O)C2=C(O)CCCC2=O)c1=O)=C(F)F` [I-28], the “herbicidal effect (index), Slender Amaranth” value [1] was 5 (90% or more of herbicidal effect and crop phytotoxicity), the “herbicidal effect (index), Velvetleaf” value [2] was 5 (90% or more of herbicidal effect and crop phytotoxicity) and the “herbicidal effect (index), Barnyardgrass” value [3] was 5 (90% or more of herbicidal effect and crop phytotoxicity). The “herbicidal effect (index), Green Foxtail” value [4] was 5 (90% or more of herbicidal effect and crop phytotoxicity), the “herbicidal effect, Echinochloa oryzicola Vasing” value [5] was 5 (90% or more of herbicidal effect and crop phytotoxicity) and the “herbicidal effect, Scirpus juncoides Roxb.” value [6] was 4 (70 to less than 90% of herbicidal effect and crop phytotoxicity). The “herbicidal effect, Monochoria vaginalis” value [7] was 5 (90% or more of herbicidal effect and crop phytotoxicity).

For `CC[S+]([O-])Cn1c(C(F)(F)F)ccc(C(=O)C2=C(O)C3CCC(C3)C2=O)c1=O` (stereo not shown) [III-27], the “herbicidal effect, Slender Amaranth” value [1] was 5 (90% or more of herbicidal effect and crop phytotoxicity), the “herbicidal effect, Velvetleaf” value [2] was 5 (90% or more of herbicidal effect and crop phytotoxicity) and the “herbicidal effect, Barnyardgrass” value [3] was 5 (90% or more of herbicidal effect and crop phytotoxicity). The “herbicidal effect, Green Foxtail” value [4] was 5 (90% or more of herbicidal effect and crop phytotoxicity).

`Cn1ncc(C(=O)c2ccc(C(F)(F)F)n(-c3cccc(S(C)(=O)=O)c3)c2=O)c1O` [IV-74] was tested, and the “herbicidal effect, Slender Amaranth” value [1] was 5 (90% or more of herbicidal effect and crop phytotoxicity), the “herbicidal effect, Velvetleaf” value [2] was 5 (90% or more of herbicidal effect and crop phytotoxicity) and the “herbicidal effect, Barnyardgrass” value [3] was 4 (70 to less than 90% of herbicidal effect and crop phytotoxicity). For the same compound, the “herbicidal effect, Green Foxtail” value [4] was 4 (70 to less than 90% of herbicidal effect and crop phytotoxicity), the “herbicidal effect, Echinochloa oryzicola Vasing” value [5] was 4 (70 to less than 90% of herbicidal effect and crop phytotoxicity) and the “herbicidal effect, Scirpus juncoides Roxb.” value [6] was 5 (90% or more of herbicidal effect and crop phytotoxicity). The “herbicidal effect, Monochoria vaginalis” value [7] was 4 (70 to less than 90% of herbicidal effect and crop phytotoxicity).

In the case of `CS(=O)(=O)Cn1c(C(F)(F)F)ccc(C(=O)C2=C(O)CCCC2=O)c1=O` [I-47], the “herbicidal effect (index), Slender Amaranth” value [1] is reported as 5 (90% or more of herbicidal effect and crop phytotoxicity), the “herbicidal effect (index), Velvetleaf” value [2] is reported as 5 (90% or more of herbicidal effect and crop phytotoxicity) and the “herbicidal effect (index), Barnyardgrass” value [3] is reported as 5 (90% or more of herbicidal effect and crop phytotoxicity). For the same compound, the “herbicidal effect (index), Green Foxtail” value [4] was 4 (70 to less than 90% of herbicidal effect and crop phytotoxicity), the “herbicidal effect, Echinochloa oryzicola Vasing” value [5] was 5 (90% or more of herbicidal effect and crop phytotoxicity) and the “herbicidal effect, Scirpus juncoides Roxb.” value [6] was 5 (90% or more of herbicidal effect and crop phytotoxicity). The “herbicidal effect, Monochoria vaginalis” value [7] was 5 (90% or more of herbicidal effect and crop phytotoxicity).

For `C=CCn1c(C(F)(F)F)ccc(C(=O)c2cnn(CC)c2OS(=O)(=O)CCC)c1=O` [IV-12], the “herbicidal effect, Slender Amaranth” value [1] was 5 (90% or more of herbicidal effect and crop phytotoxicity), the “herbicidal effect, Velvetleaf” value [2] was 5 (90% or more of herbicidal effect and crop phytotoxicity) and the “herbicidal effect, Barnyardgrass” value [3] was 5 (90% or more of herbicidal effect and crop phytotoxicity). For the same compound, the “herbicidal effect, Green Foxtail” value [4] was 4 (70 to less than 90% of herbicidal effect and crop phytotoxicity), the “herbicidal effect, Echinochloa oryzicola Vasing” value [5] was 5 (90% or more of herbicidal effect and crop phytotoxicity) and the “herbicidal effect, Scirpus juncoides Roxb.” value [6] was 5 (90% or more of herbicidal effect and crop phytotoxicity). For the same compound, the “herbicidal effect, Monochoria vaginalis” value [7] was 5 (90% or more of herbicidal effect and crop phytotoxicity).

In the case of `Cc1nn(C)c(O)c1C(=O)c1ccc(C(F)(F)F)n(C)c1=O` [IV-231], the “herbicidal effect, Slender Amaranth” value [1] is reported as 5 (90% or more of herbicidal effect and crop phytotoxicity), the “herbicidal effect, Velvetleaf” value [2] is reported as 5 (90% or more of herbicidal effect and crop phytotoxicity) and the “herbicidal effect, Barnyardgrass” value [3] is reported as 3 (50 to less than 70% of herbicidal effect and crop phytotoxicity). For the same compound, the “herbicidal effect, Green Foxtail” value [4] was 5 (90% or more of herbicidal effect and crop phytotoxicity), the “herbicidal effect, Echinochloa oryzicola Vasing” value [5] was 5 (90% or more of herbicidal effect and crop phytotoxicity) and the “herbicidal effect, Scirpus juncoides Roxb.” value [6] was 5 (90% or more of herbicidal effect and crop phytotoxicity). The “herbicidal effect, Monochoria vaginalis” value [7] was 5 (90% or more of herbicidal effect and crop phytotoxicity).

With `CSCCCn1c(C(F)(F)F)ccc(C(=O)C2=C(O)C3CCC(C3)C2=O)c1=O` (stereo not shown) [III-31] the “herbicidal effect, Slender Amaranth” value [1] was 5 (90% or more of herbicidal effect and crop phytotoxicity), the “herbicidal effect, Velvetleaf” value [2] was 5 (90% or more of herbicidal effect and crop phytotoxicity) and the “herbicidal effect, Barnyardgrass” value [3] was 5 (90% or more of herbicidal effect and crop phytotoxicity). For the same compound, the “herbicidal effect, Green Foxtail” value [4] was 5 (90% or more of herbicidal effect and crop phytotoxicity), the “herbicidal effect, Echinochloa oryzicola Vasing” value [5] was 5 (90% or more of herbicidal effect and crop phytotoxicity) and the “herbicidal effect, Scirpus juncoides Roxb.” value [6] was 5 (90% or more of herbicidal effect and crop phytotoxicity). For the same compound, the “herbicidal effect, Monochoria vaginalis” value [7] was 5 (90% or more of herbicidal effect and crop phytotoxicity).

In the case of `C#CCn1c(C(F)(F)F)ccc(C(=O)C2=C(O)CCCC2=O)c1=O` [I-14], the “herbicidal effect (index), Slender Amaranth” value [1] is reported as 5 (90% or more of herbicidal effect and crop phytotoxicity), the “herbicidal effect (index), Velvetleaf” value [2] is reported as 5 (90% or more of herbicidal effect and crop phytotoxicity) and the “herbicidal effect (index), Barnyardgrass” value [3] is reported as 5 (90% or more of herbicidal effect and crop phytotoxicity). For the same compound, the “herbicidal effect (index), Green Foxtail” value [4] was 5 (90% or more of herbicidal effect and crop phytotoxicity), the “herbicidal effect, Echinochloa oryzicola Vasing” value [5] was 5 (90% or more of herbicidal effect and crop phytotoxicity) and the “herbicidal effect, Scirpus juncoides Roxb.” value [6] was 5 (90% or more of herbicidal effect and crop phytotoxicity). For the same compound, the “herbicidal effect, Monochoria vaginalis” value [7] was 5 (90% or more of herbicidal effect and crop phytotoxicity).

`Cn1nc(C(F)(F)F)c(Cn2c(C(F)(F)F)ccc(C(=O)C3=C(O)CCCC3=O)c2=O)c1OC(F)F` [I-127] was tested, and the “herbicidal effect, Slender Amaranth” value [1] was 5 (90% or more of herbicidal effect and crop phytotoxicity), the “herbicidal effect, Velvetleaf” value [2] was 5 (90% or more of herbicidal effect and crop phytotoxicity) and the “herbicidal effect, Barnyardgrass” value [3] was 5 (90% or more of herbicidal effect and crop phytotoxicity). The “herbicidal effect, Green Foxtail” value [4] was 5 (90% or more of herbicidal effect and crop phytotoxicity), the “herbicidal effect, Echinochloa oryzicola Vasing” value [5] was 4 (70 to less than 90% of herbicidal effect and crop phytotoxicity) and the “herbicidal effect, Scirpus juncoides Roxb.” value [6] was 3 (50 to less than 70% of herbicidal effect and crop phytotoxicity). For the same compound, the “herbicidal effect, Monochoria vaginalis” value [7] was 4 (70 to less than 90% of herbicidal effect and crop phytotoxicity).

In the case of `CCSCn1c(C(F)(F)F)ccc(C(=O)C2=C(O)C3CCC(C3)C2=O)c1=O` (stereo not shown) [III-26], the “herbicidal effect, Slender Amaranth” value [1] is reported as 5 (90% or more of herbicidal effect and crop phytotoxicity), the “herbicidal effect, Velvetleaf” value [2] is reported as 5 (90% or more of herbicidal effect and crop phytotoxicity) and the “herbicidal effect, Barnyardgrass” value [3] is reported as 5 (90% or more of herbicidal effect and crop phytotoxicity). For the same compound, the “herbicidal effect, Green Foxtail” value [4] was 5 (90% or more of herbicidal effect and crop phytotoxicity).

With `CCCS(=O)(=O)Cc1c(Br)cc(C(=O)C2=C(O)CCCC2=O)c(=O)n1-c1ccccc1` [I-237] the “herbicidal effect, Slender Amaranth” value [1] was 5 (90% or more of herbicidal effect and crop phytotoxicity), the “herbicidal effect, Velvetleaf” value [2] was 5 (90% or more of herbicidal effect and crop phytotoxicity) and the “herbicidal effect, Barnyardgrass” value [3] was 5 (90% or more of herbicidal effect and crop phytotoxicity). The “herbicidal effect, Green Foxtail” value [4] was 4 (70 to less than 90% of herbicidal effect and crop phytotoxicity).
